Reference: ChEMBL document CHEMBL1155693, “Structures of five components of the actinomycin Z complex from Streptomyces fradiae, two of which contain 4-chlorothreonine” (2000)
Values after ≈ are worked out from the molar mass of the structure shown. *1 amine or outer side, *2 acyl side, *3 side chain or, on linkers, in order; H or OH if unused. Where a SMILES comes first, the peptide text is derived from it. Bridges are numbered along the chain shown (N, C = ends). Roman numbers before positions name the chains, in order. [ ]: non-standard residue; d: D form. Actinocin(1to9) = Cc1c2oc3c(C)ccc(C(=O)[*:2])c3nc-2c(C(=O)[*:1])c(N)c1=O; NMeV = CN[C@H](C(=O)O)C(C)C; Sar = CNCC(=O)O

Legend:
Type in all cases: functional
MCF7 = assay: Cytotoxicity against human MCF7 cells after 48 hrs by sulforhodamine assay; conditions: MCF7, 48 h; for CC50: read-out: LC50 (the source's name)
HepG2 = assay: Cytotoxicity against human HepG2 cells after 48 hrs by sulforhodamine assay; conditions: HepG2, 48 h
Bacillus subtilis = assay: Antibacterial activity against Bacillus subtilis ATCC 6051 after 18 hrs; conditions: ATCC 6051, 18 h
[1] = Cytotoxicity against human HMO2 cells after 48 hrs by sulforhodamine assay; conditions: HMO2, 48 h; for CC50: read-out: LC50 (the source's name)

Compound	GI50 (MCF7) [nM]	TGI (MCF7) [nM]	CC50 (MCF7) [nM]	GI50 (HepG2) [nM]	TGI (HepG2) [nM]	MIC (Bacillus subtilis) [µg/mL]	GI50 [1] [nM]	TGI [1] [nM]	CC50 [1] [nM]	LC50 (HepG2) [nM]
Cc1c2oc3c(C)ccc(C(=O)N[C@@H]4C(=O)N[C@H](C(C)C)C(=O)N5CCC[C@H]5C(=O)N(C)CC(=O)N(C)[C@@H](C(C)C)C(=O)O[C@@H]4C)c3nc-2c(C(=O)N[C@@H]2C(=O)N[C@H](C(C)C)C(=O)N3CCC[C@H]3C(=O)N(C)CC(=O)N(C)[C@@H](C(C)C)C(=O)O[C@@H]2C)c(N)c1=O [DACTINOMYCIN] (I: T[dV]P[Sar][NMeV] / II: T[dV]P[Sar][NMeV]; ester I:1-I:C, II:1-II:C; linker I:N-II:N via Actinocin(1to9))	500	2200	> 50000	1000	4000	0.78 (≈ 0.621 µM)	300	800	> 50000	
Cc1c2oc3c(C)ccc(C(=O)N[C@@H]4C(=O)N[C@H](C(C)C)C(=O)N5[C@@H](C)CC[C@H]5C(=O)N(C)CC(=O)N(C)[C@@H](C(C)C)C(=O)O[C@@H]4C)c3nc-2c(C(=O)N[C@@H]2C(=O)N[C@H](C(C)C)C(=O)N3[C@@H](C)C(=O)C[C@H]3C(=O)N(C)CC(=O)N(C)[C@@H](C)C(=O)O[C@H]2CCl)c(N)c1=O [ACTINOMYCIN Z5]	< 100	120	500	1500	10000	0.78 (≈ 0.598 µM)	< 100	< 100	500	> 50000
Cc1c2oc3c(C)ccc(C(=O)N[C@@H]4C(=O)N[C@H](C(C)C)C(=O)N5[C@H](C(=O)N(C)CC(=O)N(C)[C@@H](C(C)C)C(=O)O[C@@H]4C)[C@@H](O)C[C@@H]5C)c3nc-2c(C(=O)N[C@@H]2C(=O)N[C@H](C(C)C)C(=O)N3[C@@H](C)C(=O)C[C@H]3C(=O)N(C)CC(=O)N(C)[C@@H](C)C(=O)O[C@H]2CCl)c(N)c1=O [ACTINOMYCIN Z3]	< 100	< 100	500	< 100	1400	0.2 (≈ 0.152 µM)	< 100	< 100	280	> 50000
Cc1c2oc3c(C)ccc(C(=O)N[C@@H]4C(=O)N[C@H](C(C)C)C(=O)N5[C@H](C(=O)N(C)CC(=O)N(C)[C@@H](C(C)C)C(=O)O[C@@H]4C)[C@@H](O)C[C@@H]5C)c3nc-2c(C(=O)N[C@@H]2C(=O)N[C@H](C(C)C)C(=O)N3[C@@H](C)C(=O)C[C@H]3C(=O)N(C)CC(=O)N(C)[C@@H](C)C(=O)O[C@H]2CO)c(N)c1=O [ACTINOMYCIN Z1]	< 500	> 50000	> 50000	950	5500	12.5 (≈ 9.6 µM)	750	5800	> 50000	> 50000
